Experimental data published in patent US5093351A, “Substituted indole, benzofuran and benzothiophene derivatives as 5-lipoxygenase inhibitors” (Du Pont Merck Pharmaceutical Company, priority 1989, dated 1992).
pIC50: −log10 of the molar value.

Tests used:
5-lipoxygenase = target: T1, 5-lipoxygenase (Rattus norvegicus, UniProt P12527); experiment: 5-lipoxygenase inhibition, 10,000×g supernatant from homogenized rat basophilic leukemia (RBL-1) cells; assay type: biochemical; settings: RBL-1 10,000×g supernatant, pH 7.0, 5 min incubation with compound, 14C-arachidonic acid, 37° C., two minutes
T1 construct: endogenous in cells; host or cells: RBL-1 (rat basophilic leukemia) cells, 10,000×g supernatant of homogenate
T1 sequence (P12527 1-673): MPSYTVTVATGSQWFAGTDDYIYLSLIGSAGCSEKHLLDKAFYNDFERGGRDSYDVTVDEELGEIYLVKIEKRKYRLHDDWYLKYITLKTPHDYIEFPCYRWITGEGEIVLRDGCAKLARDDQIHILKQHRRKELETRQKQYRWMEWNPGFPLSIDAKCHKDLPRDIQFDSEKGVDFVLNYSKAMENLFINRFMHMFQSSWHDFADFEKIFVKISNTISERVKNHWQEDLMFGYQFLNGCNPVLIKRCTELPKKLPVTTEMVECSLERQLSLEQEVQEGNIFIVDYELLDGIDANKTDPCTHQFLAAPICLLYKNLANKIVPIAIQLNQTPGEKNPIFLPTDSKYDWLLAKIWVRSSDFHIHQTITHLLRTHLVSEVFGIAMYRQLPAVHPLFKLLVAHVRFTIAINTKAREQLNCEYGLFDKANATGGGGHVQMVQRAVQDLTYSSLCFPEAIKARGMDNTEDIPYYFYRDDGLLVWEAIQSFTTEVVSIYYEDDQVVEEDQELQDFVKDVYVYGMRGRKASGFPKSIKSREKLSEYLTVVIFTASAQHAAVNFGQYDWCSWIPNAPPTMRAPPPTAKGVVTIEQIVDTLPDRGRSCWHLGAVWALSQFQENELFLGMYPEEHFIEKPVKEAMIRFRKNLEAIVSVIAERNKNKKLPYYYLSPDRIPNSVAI
Experimental: The test method is a modification of the procedure developed by Jakschik et al. (Prostaglandins (1978) 16, 733; Biochem. Biophys. Res. Commun. (1980) 95, 103; Biochem. Biophys. Res. Commun. (1981) 102, 624).
The 10,000×g supernatant from homogenized RBL-1 cells was incubated with test compound in a pH 7.0 phosphate buffer for five minutes. ^14 C-arachidonic acid was added to initiate the reaction, which was allowed to continue at 37° C. for two minutes. The reaction was stopped by freezing in a dry ice/ethanol slurry, and the 5-lipoxygenase products were separated from the substrate on silica gel columns. The amount of individual lipoxygenase products produced was determined and the percent inhibition calculated.

[1] = system: arachidonic acid-induced ear edema; experiment: Arachidonic acid-induced ear edema in CF1 mice, topical; assay type: in vivo; settings: Mus musculus, 1 h, 100 μg/ear, topical in acetone just prior to 1 mg arachidonic acid, one hour after challenge
Experimental: This assay indicates a specific use in the treatment of skin diseases such as psoriasis. This assay also implies a reduction in leukotrienes caused by the compounds of the invention, and indicates the use of these compounds in other diseases where the production of leukotrienes is involved in the pathological process.
The assay is a modification of the procedure described by Young et al. (J. Invest. Dermatol. (1983) 80, 48). 1 mg of arachidonic acid is applied as an acetone solution to the inner surface of the pinna of CF1 mice. Test compound dissolved in acetone is applied to the ear just prior to the arachidonic acid challenge. One hour after challenge, 6 mm disks are removed from the ear with a biopsy punch, and the weight is determined. The results are determined as a percent inhibition of the swelling which occurs in the absence of the test compound.

pIC50 (5-lipoxygenase)	Compound	inhibition in vivo at 100 µg/ear [1] [%]
7.25	Cn1ccc2c(O)c(Cc3ccccc3)ccc21 [Example 1a, 1-Methyl-4-hydroxy-5-phenylmethylindole]	74
–	COc1ccc(Cc2ccc3c(ccn3C)c2OC(C)=O)cc1 [Example 6c]	72
7.38	Oc1c(Cc2ccccc2)ccc2c1ccn2Cc1ccccc1 [Example 1d]	41
–	Cn1ccc2c(O)c(Cc3ccc4c(c3)OCO4)ccc21 [Example 1g]	54
–	COc1ccc(Cc2ccc3c(ccn3C)c2O)cc1 [Example 1e]	64
6.40	Oc1c(Cc2ccccc2)ccc2occc12 [Example 1c]	42
6.89	Oc1c(Cc2ccccc2)ccc2sccc12 [Example 1b]	53
–	CC(=O)Oc1c(Cc2cccs2)ccc2c1ccn2C [Example 6b]	54

Compound	pIC50 (5-lipoxygenase)	inhibition in vivo at 100 µg/ear [1] [%]
CC(=O)Oc1c(Cc2ccccc2)ccc2c1ccn2C [Example 6a, 1-Methyl-4-acetoxy-5-phenylmethylindole]	6.38	72
